Patent US8916553B2 (Bristol-Myers Squibb Company, priority 2010, dated 2014)

Molecular target: Human CYP17 (Homo sapiens (Human), UniProt P05093)
Assay: CYP17 Total SPA Assay
Type: biochemical
Details: microsomes from HEK2 cells stably transfected with CYP17; 3H-Pregnenolone 1 uM; NADPH 2 mM; 45 minutes at room temperature
Experimental: CYP17 Total SPA Assay The assays were performed in U-bottom 384-well optiplates. […] The reaction was initiated by the combination of the microsomes and substrates in wells containing compound. The reaction was incubated at room temperature for 45 minutes and terminated by adding 7.5 μl of 0.2N HCl to each well. […] The plate was sealed and incubated overnight with shaking at 4° C. The beads were allowed to settle in the plate for 1 hour and the plate read on a TOPCOUNT® (Perkin-Elmer) plate reader. […] The final concentration of reagents in the assays are NADPH, 2 mM; 3H-Pregnenolone, 1 uM; microsomes, 1.25 ug/ml; […] Dose response curves were generated to determine the concentration required inhibiting 50% of enzyme activity (IC50). Compounds were dissolved at 10 mM in dimethylsulfoxide (DMSO) and evaluated at eleven concentrations, each in duplicate. IC50 values were derived by non-linear regression analysis. Table 22 below lists the IC50 values for the following Examples of this invention measured in the Total CYP17 SPA Assay hereinabove.

Chain of Human CYP17 (P05093 whole entry): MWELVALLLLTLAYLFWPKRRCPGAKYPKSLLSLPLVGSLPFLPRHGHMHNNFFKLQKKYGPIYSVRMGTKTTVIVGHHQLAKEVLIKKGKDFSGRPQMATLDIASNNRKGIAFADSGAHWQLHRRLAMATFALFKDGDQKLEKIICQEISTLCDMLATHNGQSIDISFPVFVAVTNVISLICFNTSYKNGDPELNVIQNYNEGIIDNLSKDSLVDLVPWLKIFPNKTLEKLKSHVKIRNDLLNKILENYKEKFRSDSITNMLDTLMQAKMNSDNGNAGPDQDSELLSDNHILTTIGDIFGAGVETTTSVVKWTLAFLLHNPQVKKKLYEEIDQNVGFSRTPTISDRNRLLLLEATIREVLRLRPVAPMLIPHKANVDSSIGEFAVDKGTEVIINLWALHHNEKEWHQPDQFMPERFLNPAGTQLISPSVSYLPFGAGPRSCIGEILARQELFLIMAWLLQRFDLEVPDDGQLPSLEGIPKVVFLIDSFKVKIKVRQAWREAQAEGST

| IC50 [µM] | SMILES |
| --- | --- |
| 0.056 | COc1ccc(S(=O)(=O)Nc2ccc(-c3cncnc3C)c(OC)c2)cc1 [Example 170, 4-methoxy-N-(3-methoxy-4-(4-methylpyrimidin-5-yl)phenyl)benzenesulfonamide] |
| 0.117 | COc1cc(NS(=O)(=O)c2ccc(Cl)cc2)ccc1-c1cncnc1C [Example 172, 4-chloro-N-(3-methoxy-4-(4-methylpyrimidin-5-yl)phenyl)benzenesulfonamide] |
| 0.0029 | COc1cc(NS(=O)(=O)c2ccccc2)ccc1-c1cncc2ccccc12 [Example 143, N-(4-(isoquinolin-4-yl)-3-methoxyphenyl)benzenesulfonamide] |
| 0.048 | CS(=O)(=O)Nc1ccc(-c2cncc3ccccc23)c(C(F)(F)F)c1 [Example 241, N-(4-(isoquinolin-4-yl)-3-(trifluoromethyl)phenyl)methanesulfonamide] |
| 0.1 | COc1cc(NS(C)(=O)=O)ccc1-c1cncnc1C1CCCCC1 [Example 221, N-(4-(4-cyclohexylpyrimidin-5-yl)-3-methoxyphenyl)methanesulfonamide] |
| 0.103 | COc1cc(NS(C)(=O)=O)ccc1-c1cncnc1C(C)C [Example 220, N-(4-(4-isopropylpyrimidin-5-yl)-3-methoxyphenyl) methanesulfonamide] |
| 0.0014 | Cc1cc(NS(C)(=O)=O)ccc1-c1cnccc1OCC(F)(F)F [Example 198, N-(3-methyl-4-(4-(2,2,2-trifluoroethoxy)-3-pyridinyl)phenyl) methane sulfonamide] |
| 0.0096 | COc1cc(NS(=O)(=O)Cc2ccccc2)ccc1-c1cncnc1C [Example 168, N-(3-methoxy-4-(4-methylpyrimidin-5-yl)phenyl)-1-phenylmethanesulfonamide] |
| 0.04 | CS(=O)(=O)Nc1ccc(-c2cncc3ccccc23)c(OCCF)c1 [Example 234, N-(3-(2-fluoroethoxy)-4-(isoquinolin-4-yl)phenyl)methanesulfonamide] |
| 0.051 | CS(=O)(=O)Nc1ccc(-c2cncc3ncccc23)c(OCCF)c1 [Example 239, N-(3-(2-fluoroethoxy)-4-(1,7-naphthyridin-5-yl)phenyl)methanesulfonamide] |
| 0.0077 | Cc1ccncc1-c1ccc(NS(=O)(=O)C2CC2)cc1OCC(F)(F)F [Example 184] |
| 0.12 | COc1cc(NS(C)(=O)=O)ccc1-c1cncn2cccc12 [Example 250, N-(3-methoxy-4-(pyrrolo[1,2-c]pyrimidin-4-yl)phenyl)methanesulfonamide] |
| 0.032 | Cc1ccncc1-c1ccc(NS(C)(=O)=O)cc1OCC(F)F [Example 23, N-(3-(2,2-difluoroethoxy)-4-(4-methyl-3-pyridinyl)phenyl)methane sulfonamide] |
| 0.0081 | CCS(=O)(=O)Nc1ccc(-c2cncc3ccccc23)c(OC)c1 [Example 156, N-(4-(isoquinolin-4-yl)-3-methoxyphenyl)ethanesulfonamide] |
| 0.174 | CS(=O)(=O)Nc1ccc(-c2cnccc2Cl)c(OCCF)c1 [Example 236, N-(4-(4-chloropyridin-3-yl)-3-(2-fluoroethoxy)phenyl)methanesulfonamide] |
| 0.134 | CCCS(=O)(=O)Nc1ccc(-c2cncnc2C)c(OC)c1 [Example 163, N-(3-methoxy-4-(4-methylpyrimidin-5-yl)phenyl)propane-1-sulfonamide] |
| 0.0027 | COc1ccc(S(=O)(=O)Nc2ccc(-c3cncc4ccccc34)c(OC)c2)cc1 [Example 147, N-(4-(isoquinolin-4-yl)-3-methoxyphenyl)-4-methoxybenzenesulfonamide] |
| 0.112 | COc1cc(NS(C)(=O)=O)ccc1-c1cncnc1C [Example 161, N-(3-methoxy-4-(4-methylpyrimidin-5-yl)phenyl)methanesulfonamide] |
| 0.026 | Cc1ccncc1-c1ccc(NS(C)(=O)=O)cc1C(F)(F)F [Example 240, N-(4-(4-methylpyridin-3-yl)-3-(trifluoromethyl)phenyl)methanesulfonamide] |
| 0.0032 | CS(=O)(=O)Nc1ccc(-c2cncc3ccccc23)c(OC(F)(F)F)c1 [Example 228, N-(4-(isoquinolin-4-yl)-3-(trifluoromethoxy)phenyl)methanesulfonamide] |
| 0.0066 | COc1cc(NS(C)(=O)=O)ccc1-c1cncc2ccccc12 [Example 142, N-(4-(isoquinolin-4-yl)-3-methoxyphenyl)methanesulfonamide] |
| 0.118 | COc1cc(NS(=O)(=O)c2cccc3cccnc23)ccc1-c1cncnc1C [Example 176, N-(3-methoxy-4-(4-methylpyrimidin-5-yl)phenyl)quinoline-8-sulfonamide] |

| IC50 [µM] | SMILES |
| --- | --- |
| 0.1 | COc1cc(NS(=O)(=O)CC(C)C)ccc1-c1cncnc1C [Example 164] |
| 0.0054 | COc1cc(NS(=O)(=O)c2ccccc2)ccc1-c1cncnc1C [Example 165, N-(3-methoxy-4-(4-methylpyrimidin-5-yl)phenyl)benzenesulfonamide] |
| 0.052 | Cc1cc(NS(C)(=O)=O)ccc1-c1cnccc1Cl [Example 195, N-(4-(4-chloro-3-pyridinyl)-3-methylphenyl)methanesulfonamide] |
| 0.158 | COc1cc(NS(=O)(=O)CC(F)(F)F)ccc1-c1cncnc1C [Example 167, 2,2,2-trifluoro-N-(3-methoxy-4-(4-methylpyrimidin-5-yl)phenyl)ethanesulfonamide] |
| 0.104 | Cc1cc(NS(C)(=O)=O)ccc1-c1cnccc1-c1ccccc1 [Example 12, N-(3-methyl-4-(4-phenyl-3-pyridinyl)phenyl)methanesulfonamide] |
| 0.131 | COc1cc(NS(=O)(=O)c2cccnc2)ccc1-c1cncnc1C [Example 166, N-(3-methoxy-4-(4-methylpyrimidin-5-yl)phenyl)pyridine-3-sulfonamide] |
| 0.027 | COc1cc(NS(=O)(=O)c2cccc3cccnc23)ccc1-c1cncc2ccccc12 [Example 154, N-(4-(isoquinolin-4-yl)-3-methoxyphenyl)quinoline-8-sulfonamide] |
| 0.0062 | COc1cc(NS(=O)(=O)C2CC2)ccc1-c1cncc2ccccc12 [Example 159, N-(4-(isoquinolin-4-yl)-3-methoxyphenyl)cyclopropanesulfonamide] |
| 0.118 | COc1cc(NS(=O)(=O)c2cn(C)c(C)n2)ccc1-c1cncc2ccccc12 [Example 158, N-(4-(isoquinolin-4-yl)-3-methoxyphenyl)-1,2-dimethyl-1H-imidazole-4-sulfonamide] |
| 0.057 | COc1cc(NS(C)(=O)=O)ccc1-c1cncnc1OC [Example 245] |
| 0.059 | COc1cc(NS(=O)(=O)c2ccc3ccccc3c2)ccc1-c1cncnc1C [Example 175, N-(3-methoxy-4-(4-methylpyrimidin-5-yl)phenyl)naphthalene-2-sulfonamide] |
| 0.042 | Cc1ccncc1-c1ccc(NS(C)(=O)=O)cc1OCC(F)(F)F [Example 24, N-(4-(4-methyl-3-pyridinyl)-3-(2,2,2-trifluoroethoxy)phenyl)methane sulfonamide] |
| 0.0021 | COc1cc(NS(C)(=O)=O)ccc1-c1cnccc1C1CC1 [Example 225, N-(4-(4-cyclopropylpyridin-3-yl)-3-methoxyphenyl)methanesulfonamide] |
| 0.056 | COc1ccncc1-c1ccc(NS(C)(=O)=O)cc1OCC(F)(F)F [Example 233, N-(4-(4-methoxypyridin-3-yl)-3-(2,2,2-trifluoroethoxy)phenyl)methanesulfonamide] |
| 0.039 | CS(=O)(=O)Nc1ccc(-c2cnccc2C2CC2)c(C(F)(F)F)c1 [Example 243, N-(4-(4-cyclopropylpyridin-3-yl)-3-(trifluoromethyl)phenyl)methanesulfonamide] |
| 0.0034 | COc1cc(NS(=O)(=O)Cc2ccc(Cl)cc2)ccc1-c1cncnc1C [Example 173, 1-(4-chlorophenyl)-N-(3-methoxy-4-(4-methylpyrimidin-5-yl)phenyl)methanesulfonamide] |
| 0.119 | COc1cc(NS(=O)(=O)CCc2ccccc2)ccc1-c1cncnc1C [Example 169, N-(3-methoxy-4-(4-methylpyrimidin-5-yl)phenyl)-2-phenylethanesulfonamide] |
| 0.059 | CS(=O)(=O)Nc1ccc(-c2cncc3ccccc23)c(OCC(F)(F)F)c1 [Example 232, N-(4-(isoquinolin-4-yl)-3-(2,2,2-trifluoroethoxy)phenyl)methanesulfonamide] |
| 0.169 | COc1cc(NS(=O)(=O)C2CC2)ccc1-c1cncnc1C [Example 162, N-(3-methoxy-4-(4-methylpyrimidin-5-yl)phenyl)cyclopropanesulfonamide] |
| 0.011 | COc1cc(NS(=O)(=O)c2cccc3ccccc23)ccc1-c1cncc2ccccc12 [Example 144, N-(4-(isoquinolin-4-yl)-3-methoxyphenyl)naphthalene-1-sulfonamide] |
| 0.049 | CCc1ncncc1-c1ccc(NS(C)(=O)=O)cc1OC [Example 218, N-(4-(4-ethylpyrimidin-5-yl)-3-methoxyphenyl) methanesulfonamide] |
| 0.006 | COc1cc(NS(=O)(=O)c2ccccn2)ccc1-c1cncc2ccccc12 [Example 160, N-(4-(isoquinolin-4-yl)-3-methoxyphenyl)pyridine-2-sulfonamide] |
